Assay results taken from patent publication US11548900B2, “Oxazino-quinazoline and oxazino-quinoline type compound, preparation method and uses thereof” (BEIJING SCITECH-MQ PHARMACEUTICALS LIMITED, priority 2018, dated 2023).

Key:
HER2 kinase = HER2 kinase (Homo sapiens (Human), UniProt P04626); assay: Inhibition of HER2 kinase activity (ULight-labeled PolyGT substrate); format: biochemical; conditions: HER2 kinase 10 nM, ATP 10 μM, 2 hours
Method in brief: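 Eleven-point 3-fold dilutions (0.042 nM–2.5 μM final, 1% DMSO) tested in duplicate against 10 nM HER2 with 100 nM ULight-labelled PolyGT and 10 μM ATP. Reaction ran 2 h at RT after 5 min pre-incubation; 665/615 nm TR-FRET ratio used to derive inhibition and IC50.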

BT474 cells = assay: Inhibition of cell proliferation, BT474 (CCK-8, 72 h); format: cell-based; conditions: Homo sapiens, BT-474, 72 h incubation
Description: (§1) The assay for the inhibition of cell proliferation by small molecular compounds was carried out using the method as follows:
(§2) 1. 600 μL pancreatin was added to a T75 cell culture flask, which was digested in a 37° C. incubator for about 1 min before 5 mL of DMEM complete culture solution was added, blew evenly, transferred to a 15 mL centrifuge tube, and centrifuged at 1000 rpm for 4 min;
(§3) 2. The supernatant was removed and 5 mL DMEM complete culture solution was added, blew evenly, and 10 μL cell suspension was taken and mixed with 10 μL 0.4% Trypan Blue, and counted using a cell counter;
(§4) 3. BT474 and HCC827 cell lines were seeded in 96-well plates at a cell density of 10,000 and 3000 cells/well/80 μL, respectively, and cultured overnight. Only sterile water was added to the 36 wells on the periphery of the 96-well plate without adding cells, and only the 60 wells in the center of the 96-well plate were used for cell assays and controls;
(§5) 4. Dilution of compounds: the compounds were diluted with a 3-fold dilution to make 10 concentrations in total with an initial concentration of 10 mM;
(§6) 5. 20 μL of different compounds with different concentrations were added to each well, and 20 μL of complete culture solution was added to the remaining wells. The final concentration of DMSO in each well is 0.25%;
(§7) 6. After 72 h of incubation, 10 μL CCK-8 reagent was added to each well, and incubated at 37° C. for 1-2 h; and the OD value was read at 450 nm;
(§8) 7. Cell survival rate (%)=[(As−Ab)/(Ac−Ab)]*100%
(§9) As: Assay well (medium containing cell, CCK-8, compound)
(§10) Ac: Control well (medium containing cell, CCK-8)
(§11) Ab: Blank well (CCK-8, medium without cell and compound)
(§12) 8. The value was imported into Graphpad Prism5 software for the calculation of IC50s (compound concentration at which 50% maximum survival rate is observed).

HCC827 cells = assay: Inhibition of cell proliferation, HCC827 (CCK-8, 72 h); format: cell-based; conditions: Homo sapiens, 72 h incubation
Description: as §1, §2, §3, §4, §5, §6, §7, §8, §9, §10, §11, §12

Chain of HER2 kinase (P04626 23-1255): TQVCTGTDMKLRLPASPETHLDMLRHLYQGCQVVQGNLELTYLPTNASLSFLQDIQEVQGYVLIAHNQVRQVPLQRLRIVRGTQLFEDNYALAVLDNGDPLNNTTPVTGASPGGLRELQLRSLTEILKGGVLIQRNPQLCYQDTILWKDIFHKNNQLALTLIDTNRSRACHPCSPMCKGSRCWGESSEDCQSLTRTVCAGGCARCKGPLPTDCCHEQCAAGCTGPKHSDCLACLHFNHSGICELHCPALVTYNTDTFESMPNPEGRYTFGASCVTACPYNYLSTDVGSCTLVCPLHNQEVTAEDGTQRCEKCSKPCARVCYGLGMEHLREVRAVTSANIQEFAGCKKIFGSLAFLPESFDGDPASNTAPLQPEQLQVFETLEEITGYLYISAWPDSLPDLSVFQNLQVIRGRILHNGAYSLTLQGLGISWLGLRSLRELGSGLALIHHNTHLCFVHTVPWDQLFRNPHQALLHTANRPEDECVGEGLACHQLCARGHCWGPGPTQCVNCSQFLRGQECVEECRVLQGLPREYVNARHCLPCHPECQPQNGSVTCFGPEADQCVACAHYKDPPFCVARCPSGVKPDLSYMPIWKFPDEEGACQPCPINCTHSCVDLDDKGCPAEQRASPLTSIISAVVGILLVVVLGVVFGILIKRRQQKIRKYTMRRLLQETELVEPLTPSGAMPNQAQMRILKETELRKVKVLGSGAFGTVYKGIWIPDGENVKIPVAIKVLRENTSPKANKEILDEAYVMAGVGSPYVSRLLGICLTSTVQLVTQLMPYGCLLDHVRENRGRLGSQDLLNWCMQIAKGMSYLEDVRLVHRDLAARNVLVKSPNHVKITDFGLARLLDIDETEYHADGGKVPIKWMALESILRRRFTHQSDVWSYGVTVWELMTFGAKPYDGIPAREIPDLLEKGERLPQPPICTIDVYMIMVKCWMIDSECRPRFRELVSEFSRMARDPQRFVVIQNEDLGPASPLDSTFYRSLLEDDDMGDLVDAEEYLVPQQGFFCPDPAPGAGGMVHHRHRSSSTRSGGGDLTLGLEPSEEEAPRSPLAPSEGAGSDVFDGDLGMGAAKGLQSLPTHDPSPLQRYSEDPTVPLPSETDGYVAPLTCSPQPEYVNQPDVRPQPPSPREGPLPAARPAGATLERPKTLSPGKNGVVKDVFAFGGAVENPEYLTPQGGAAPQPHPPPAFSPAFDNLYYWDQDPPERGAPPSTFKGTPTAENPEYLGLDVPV

Row | IC50 (HER2 kinase) | IC50 (BT474 cells) | IC50 (HCC827 cells) | SMILES
1 | ≤ 50 nM | ≤ 50 nM | 50 to 500 nM | CN(C)C/C=C/C(=O)N1CCOc2c1ccc1ncnc(Nc3ccc(Oc4ccccc4)c(F)c3)c21 [Example 58, (E)-4-(dimethylamino)-1-(10-((3-fluoro-4-phenoxyphenyl)amino)-2,3-dihydro-4H-[1,4]oxazino[2,3-f]quinazolin-4-yl)but-2-en-1-one]
2 | ≤ 50 nM | ≤ 50 nM | 500 to 5000 nM | CN(C)C/C=C/C(=O)N1CCOc2c1ccc1ncnc(Nc3ccc(OCc4ccccc4)cc3)c21 [Example 78, (E)-1-(10-((4-(benzyloxy)phenyl)amino)-2,3-dihydro-4H-[1,4]oxazino[2,3-f]quinazolin-4-yl)-4-(dimethylamino)but-2-en-1-one]
3 | ≤ 50 nM | ≤ 50 nM | 500 to 5000 nM | CN(C)C/C=C/C(=O)N1CCOc2c1ccc1ncnc(Nc3ccc(OCc4ccccc4F)cc3)c21 [Example 79, (E)-4-(dimethylamino)-1-(10-((4-((2-fluorobenzyl)oxy)phenyl)amino)-2,3-dihydro-4H-[1,4]oxazino[2,3-f]quinazolin-4-yl)but-2-en-1-one]
4 | ≤ 50 nM | ≤ 50 nM | 500 to 5000 nM | CN(C)C/C=C/C(=O)N1CCOc2c1ccc1ncnc(Nc3ccc(OCc4ccccc4Cl)cc3)c21 [Example 80, (E)-4-(dimethylamino)-1-(10-((4-((2-chlorobenzyl)oxy)phenyl)amino)-2,3-dihydro-4H-[1,4]oxazino[2,3-f]quinazolin-4-yl)but-2-en-1-one]
5 | ≤ 50 nM | ≤ 50 nM | 500 to 5000 nM | Cc1ccccc1COc1ccc(Nc2ncnc3ccc4c(c23)OCCN4C(=O)/C=C/CN(C)C)cc1 [Example 81, (E)-4-(dimethylamino)-1-(10-((4-((2-methylbenzyl)oxy)phenyl)amino)-2,3-dihydro-4H-[1,4]oxazino[2,3-f]quinazolin-4-yl)but-2-en-1-one]
6 | ≤ 50 nM | ≤ 50 nM | 500 to 5000 nM | COc1ccccc1COc1ccc(Nc2ncnc3ccc4c(c23)OCCN4C(=O)/C=C/CN(C)C)cc1 [Example 82, (E)-4-(dimethylamino)-1-(10-((4-((2-methoxybenzyl)oxy)phenyl)amino)-2,3-dihydro-4H-[1,4]oxazino[2,3-f]quinazolin-4-yl)but-2-en-1-one]
7 | ≤ 50 nM | ≤ 50 nM | 50 to 500 nM | Cc1cccc(COc2ccc(Nc3ncnc4ccc5c(c34)OCCN5C(=O)/C=C/CN(C)C)cc2)c1 [Example 84, (E)-4-(dimethylamino)-1-(10-((4-((3-methylbenzyl)oxy)phenyl)amino)-2,3-dihydro-4H-[1,4]oxazino[2,3-f]quinazolin-4-yl)but-2-en-1-one]
8 | ≤ 50 nM | ≤ 50 nM | 500 to 5000 nM | CN(C)C/C=C/C(=O)N1CCOc2c1ccc1ncnc(Nc3ccc(OCc4cccc(C#N)c4)cc3)c21 [Example 85, (E)-4-(dimethylamino)-1-(10-((4-((3-cyanobenzyl)oxy)phenyl)amino)-2,3-dihydro-4H-[1,4]oxazino[2,3-f]quinazolin-4-yl)but-2-en-1-one]
9 | ≤ 50 nM | ≤ 50 nM | 500 to 5000 nM | COc1cccc(COc2ccc(Nc3ncnc4ccc5c(c34)OCCN5C(=O)/C=C/CN(C)C)cc2)c1 [Example 86, (E)-4-(dimethylamino)-1-(10-((4-((3-methoxybenzyl)oxy)phenyl)amino)-2,3-dihydro-4H-[1,4]oxazino[2,3-f]quinazolin-4-yl)but-2-en-1-one]
10 | ≤ 50 nM | 50 to 500 nM | 500 to 5000 nM | CN(C)C/C=C/C(=O)N1CCOc2c1ccc1ncnc(Nc3ccc(OCc4ccc(Cl)cc4)cc3)c21 [Example 87, (E)-4-(dimethylamino)-1-(10-((4-((4-chlorobenzyl)oxy)phenyl)amino)-2,3-dihydro-4H-[1,4]oxazino[2,3-f]quinazolin-4-yl)but-2-en-1-one]
11 | ≤ 50 nM | ≤ 50 nM | 500 to 5000 nM | Cc1ccc(COc2ccc(Nc3ncnc4ccc5c(c34)OCCN5C(=O)/C=C/CN(C)C)cc2)cc1 [Example 88, (E)-4-(dimethylamino)-1-(10-((4-((4-methylbenzyl)oxy)phenyl)amino)-2,3-dihydro-4H-[1,4]oxazino[2,3-f]quinazolin-4-yl)but-2-en-1-one]
12 | ≤ 50 nM | ≤ 50 nM | 500 to 5000 nM | CN(C)C/C=C/C(=O)N1CCOc2c1ccc1ncnc(Nc3ccc(OCc4cc(F)ccc4F)cc3)c21 [Example 89, (E)-1-(10-((4-((2,5-difluorobenzyl)oxy)phenyl)amino)-2,3-dihydro-4H-[1,4]oxazino[2,3-f]quinazolin-4-yl)-4-(dimethylamino)but-2-en-1-one]
13 | ≤ 50 nM | ≤ 50 nM | 500 to 5000 nM | CN(C)C/C=C/C(=O)N1CCOc2c1ccc1ncnc(Nc3ccc(OCc4cc(F)ccc4Cl)cc3)c21 [Example 90, (E)-1-(10-((4-((2-chloro-5-fluorobenzyl)oxy)phenyl)amino)-2,3-dihydro-4H-[1,4]oxazino[2,3-f]quinazolin-4-yl)-4-(dimethylamino)but-2-en-1-one]
14 | ≤ 50 nM | ≤ 50 nM | 50 to 500 nM | CN(C/C=C/C(=O)N1CCOc2c1ccc1ncnc(Nc3ccc(OCc4ccccn4)c(Cl)c3)c21)C1CC1 [Example 100, (E)-1-(10-((3-chloro-4-(pyridin-2-ylmethoxy)phenyl)amino)-2,3-dihydro-4H-[1,4]oxazino[2,3-f]quinazolin-4-yl)-4-(cyclopropyl(methyl)amino)but-2-en-1-one]
15 | 50 to 500 nM |  | 500 to 5000 nM | O=C(/C=C/CNC1CC1)N1CCOc2c1ccc1ncnc(Nc3ccc(OCc4ccccn4)c(Cl)c3)c21 [Example 101, (E)-1-(10-((3-chloro-4-(pyridin-2-ylmethoxy)phenyl)amino)-2,3-dihydro-4H-[1,4]oxazino[2,3-f]quinazolin-4-yl)-4-(cyclopropylamino)but-2-en-1-one]
16 | ≤ 50 nM | ≤ 50 nM | 50 to 500 nM | CC(C)NC/C=C/C(=O)N1CCOc2c1ccc1ncnc(Nc3ccc(OCc4ccccn4)c(Cl)c3)c21 [Example 102, (E)-1-(10-((3-chloro-4-(pyridin-2-ylmethoxy)phenyl)amino)-2,3-dihydro-4H-[1,4]oxazino[2,3-f]quinazolin-4-yl)-4-(isopropylamino)but-2-en-1-one]
17 | ≤ 50 nM | ≤ 50 nM | 50 to 500 nM | O=C(/C=C/CN1CCOCC1)N1CCOc2c1ccc1ncnc(Nc3ccc(OCc4ccccn4)c(Cl)c3)c21 [Example 103, (E)-1-(10-((3-chloro-4-(pyridin-2-ylmethoxy)phenyl)amino)-2,3-dihydro-4H-[1,4]oxazino[2,3-f]quinazolin-4-yl)-4-morpholinobut-2-en-1-one]
18 | ≤ 50 nM | ≤ 50 nM | 50 to 500 nM | O=C(/C=C/CNC1CCC1)N1CCOc2c1ccc1ncnc(Nc3ccc(OCc4ccccn4)c(Cl)c3)c21 [Example 109, (E)-1-(10-((3-chloro-4-(pyridin-2-ylmethoxy)phenyl)amino)-2,3-dihydro-4H-[1,4]oxazino[2,3-f]quinazolin-4-yl)-4-(cyclobutylamino)but-2-en-1-one]
19 | ≤ 50 nM | ≤ 50 nM | 50 to 500 nM | CN1CCC[C@H]1/C=C/C(=O)N1CCOc2c1ccc1ncnc(Nc3ccc(OCc4ccccn4)c(Cl)c3)c21 [Example 112, (S,E)-1-(10-((3-chloro-4-(pyridin-2-ylmethoxy)phenyl)amino)-2,3-dihydro-4H-[1,4]oxazino[2,3-f]quinazolin-4-yl)-3-(1-methylpyrrolidin-2-yl)prop-2-en-1-one]
20 | ≤ 50 nM | 50 to 500 nM | 500 to 5000 nM | CC#CC(=O)N1CCOc2c1ccc1ncnc(Nc3ccc(OCc4ccccn4)c(Cl)c3)c21 [Example 113, 1-(10-((3-chloro-4-(pyridin-2-ylmethoxy)phenyl)amino)-2,3-dihydro-4H-[1,4]oxazino[2,3-f]quinazolin-4-yl)but-2-yne-1-one]
21 | ≤ 50 nM | ≤ 50 nM | 50 to 500 nM | CC1(O)CCN(C/C=C/C(=O)N2CCOc3c2ccc2ncnc(Nc4ccc(OCc5ccccn5)c(Cl)c4)c32)CC1 [Example 116, (E)-1-(10-((3-chloro-4-(pyridin-2-ylmethoxy)phenyl)amino)-2,3-dihydro-4H-[1,4]oxazino[2,3-f]quinazolin-4-yl)-4-(4-hydroxyl-4-methylpiperidin-1-yl)but-2-en-1-one]
